From patent publication US12583870B2, “Azaheteroaryl compound and application thereof” (SHANGHAI BLUERAY BIOPHARMA CO., LTD., priority 2019, dated 2026) come the findings set out here.

For one assay, the system named is KARPAS-422 cells. Kind of assay: Cell proliferation analysis, KARPAS-422, 13 days, CellTiter-Glo. The class given is cell-based. Particulars: Homo sapiens, 312 h. The procedure:
Human B-cell non-Hodgkin lymphoma cells, KARPAS-422 S, were cultured in a culture flask using standard cell culture conditions. The medium contained 15% fetal bovine serum (FBS, Invitrogen, product number 10099-141) and 1% penicillin/streptomycin solution (P/S) RPMI-1640 (Invitrogen, product number 11875), and the culture flask was placed and cultured in a sterile incubator at the temperature of 37° C. and […] with a relative humidity of […] To detect the effect of PRC2 inhibitors on cell proliferation, cells in exponential growth phase were taken and seeded into a 96-well plate (Corning, product number 3904) at a density of 1×10^4 cells/well, and 100 μL of the medium was added into each well. Subsequently, the compounds at different concentrations disclosed in the present disclosure were added into the wells where cells had already been seeded (9 concentration gradients were provided for each compound, with the highest detection concentration at 10 μM, 3-fold gradient dilution) and two replicates in parallel were provided for each treatment concentration. DMSO was at a final concentration of 0.5%. Afterwards, viable cell numbers were determined using Vi-CELL (Beckman Coulter) every 3-4 days. Cells counted were seeded into a new 96-well plate at the same density (1×10^4 cells/well) each time. The wells were supplemented with a fresh medium to 100 μL and at the same time, compounds at different concentrations were added. The cells were cultured to day 13. 100 μL of CellTiter-Glo (CellTiter-GloCellTiter-GloCellTiter-GloCTG) (Promega, product number G7573) was added into each well. The plate was placed in the dark at room temperature for 10-20 minutes and the luminescence signal was read using SpectraMax i3× (Molecular Devices).
A general note: ATP-based viability assays read luminescence as a measure of living cells.

The test system of assay [1] is trimethylation level of histone H3K27 in G401 cells. In words: ELISA (H3K27 trimethylation) analysis in G401 cells. It counts as cell-based. The conditions noted are these: Homo sapiens, G-401, 72 hours, H3K27me3 standardized to H3. The method, then: 3-fold series dilution with DMSO was carried out on the representative compounds of the present disclosure; and 10 concentration gradients were detected for each compound, with the highest detection concentration of 10 μM. The compounds were diluted 200-fold into the G401 cells cultured in a 96-well plate (DMSO at a final concentration of 0.5%). After the cells, administered with the compound, were cultured for 72 hours, the trimethylation level of the histone H3K27 was detected using the ELISA method.
Extraction of the histone: in a 96-well plate, the compound-treated cells were washed three times with 1×PBS (10×PBS buffer (80 g NaCl (Sigma, product number S3014), 2 g KCl (Sigma, product number 60128), 14.4 g Na2HPO4 (Sigma, product number S5136), and 2.4 g KH2PO4 (Sigma, product number P9791) in 1 L of water, adjusting the pH to 7.4)). 100 μL of 0.4 N HCl was added into each well. The plate was placed at 4° C. and gently agitated for 2 hours to lyse the cells. The cell lysate was then neutralized with 80 μL of neutralization buffer (0.5 M disodium hydrogen phosphate, pH 12.5, 2.5 mM DTT; 1% cocktail (Sigma, product number P8340)) (the cell lysate and the neutralization buffer were thoroughly mixed to uniformity).
ELISA detection method: the cell lysate was transferred in parallel to two 384-well detection plates (PerkinElmer, OptiPlate-384HB, product number 6007290), wherein one of the plates was used to detect the H3K27 trimethylation level and the other plate was used to determine the level of H3. PBS was used to adjust the final volume to 50 μL/well. The plates were coated at 4° C. overnight. On the following day, the solution inside the wells was discarded and the plates were washed 5 times with TBST buffer (1×TBS (10×TBS: 24.2 g Tris (Sigma, product number T6066), 80 g NaCl (Sigma, product number S3014) in 1 L of water, adjusting the pH with HCl to 7.6), 0.1% Tween-20) and dried on an absorbent paper by inversion. 70 μL of blocking buffer (TBST, 5% BSA) was added into the coated reaction wells and the plates were incubated at room temperature for 1 hour. The blocking buffer was discarded and primary antibodies were added (30 μL/well). The desired primary antibodies were all diluted with a blocking buffer and the dilution factor was as follows: anti-H3K27me3 antibody (Cell Signaling Technology, product number 9733), 1:2000 dilution; anti-H3 antibody (Cell Signaling Technology, product number 4499), 1:10000 dilution. After the primary antibodies were added, the plates were placed at room temperature and incubated for 1 hour. After the plates were washed with TBST 5 times, the plates were dried by inversion. A secondary antibody (30 μL/well) was added to each of the reaction wells and the plates were incubated at room temperature for 1 hour. The secondary antibody (anti-rabbit antibody (Jackson ImmunoResearch, product number 111-035-003)) was diluted 2000-fold with a blocking buffer before use. After 1 hour, the plates were washed with TBST and dried by inversion. 30 μL of ECL substrate (Pierce, product number 34080) was added into each well and centrifuged at 2000 rpm for 30 seconds. The signal of each sample was detected using SpectraMax (Molecular Devices). Data processing: H3K27 methylation readings were first standardlized using H3 signals and 0.5% DMSO-treated samples was used as the control to calculate the inhibition percentage of the compounds. Data were fit to obtain Dose-Response curves using the GraphPad prism 5 program and the IC50 values of the test compounds were obtained.

As usually defined, the IC50 is the concentration at which inhibition is half-maximal. Read a high IC50 as a need for much substance.

For `CN(C)Cc1ccc(-c2cnc(NCc3c(F)ccc4c3CCO4)n3cnnc23)c2ncnn12` [8-(5-((dimethylamino)methyl)-[1,2,4]triazolo[1,5-a]pyridin-8-yl)-N-((5-fluoro-2,3-dihydrobenzofuran-4-yl)methyl)-[1,2,4]triazolo[4,3-c]pyrimidin-5-amine], the 50% inhibitory concentration (IC50) in the assay with KARPAS-422 cells was 0.0005 µM; in assay [1] it was 0.0006 µM.

For the molecule `CN(C)c1ccc(-c2cnc(NCc3c(F)ccc4c3CCO4)n3cnnc23)c2ncnn12` [8-(5-(dimethylamino)-[1,2,4]triazolo[1,5-a]pyridin-8-yl)-N-((5-fluoro-2,3-dihydrobenzofuran-4-yl)methyl)-[1,2,4]triazolo[4,3-c]pyrimidin-5-amine], the IC50 in the assay with KARPAS-422 cells stood at 0.0014 µM; in assay [1], 0.001 µM.

Take `Fc1ccc2c(c1CNc1ncc(-c3ccc(Cl)n4ncnc34)c3nncn13)CCO2` [8-(5-chloro-[1,2,4]triazolo[1,5-a]pyridin-8-yl)-N-((5-fluoro-2,3-dihydrobenzofuran-4-yl)methyl)-[1,2,4]triazolo[4,3-c]pyrimidin-5-amine]: the concentration for half-maximal inhibition (IC50) in the assay on KARPAS-422 cells came to 0.018 µM; in assay [1], 0.033 µM.

On to `Fc1ccc2c(c1CNc1ncc(-c3cccn4ncnc34)c3nncn13)CCO2` [8-([1,2,4]triazolo[1,5-a]pyridin-8-yl)-N-((5-fluoro-2,3-dihydrobenzofuran-4-yl)methyl)-[1,2,4]triazolo[4,3-c]pyrimidin-5-amine], for which the IC50 stood at 0.0014 µM with KARPAS-422 cells and 0.0009 µM in assay [1].

`Fc1ccc2c(c1CNc1ncc(-c3cccc4nsnc34)c3nncn13)CCO2` [8-(benzo[c][1,2,5]thiadiazol-4-yl)-N-((5-fluoro-2,3-dihydrobenzofuran-4-yl)methyl)-[1,2,4]triazolo[4,3-c]pyrimidin-5-amine]: the figures for the half-inhibitory concentration (IC50) (with KARPAS-422 cells; in assay [1]) were 0.014 µM and 0.0023 µM, respectively.

For the molecule `Fc1ccc2c(c1CNc1ncc(-c3cccc4scnc34)c3nncn13)CCO2` [8-(benzo[d]thiazol-4-yl)-N-((5-fluoro-2,3-dihydrobenzofuran-4-yl)methyl)-[1,2,4]triazolo[4,3-c]pyrimidin-5-amine], the results for the IC50 (in the assay with KARPAS-422 cells; in assay [1]) were 0.0036 µM and 0.0047 µM, respectively.

As for `Cc1ccc(-c2cnc(NCc3c(F)ccc4c3CCO4)n3cnnc23)c2ncc(C(=O)N3CCOCC3)n12` [(8-(5-(((5-fluoro-2,3-dihydrobenzofuran-4-yl)methyl)amino)-[1,2,4]triazolo[4,3-c]pyrimidin-8-yl)-5-methylimidazo[1,2-a]pyridin-3-yl)(morpholino)methanone], the IC50 in the assay with KARPAS-422 cells was found to be 0.0011 µM; in assay [1], 0.0024 µM.

Regarding `CN(C)CCN(C)Cc1ccc(-c2cnc(NCc3c(F)ccc4c3CCO4)n3cnnc23)c2ncnn12` [N1-((8-(5-(((5-fluoro-2,3-dihydrobenzofuran-4-yl)methyl)amino)-[1,2,4]triazolo[4,3-c]pyrimidin-8-yl)-[1,2,4]triazolo[1,5-a]pyridin-5-yl)methyl)-N1,N2,N2-trimethylethane-1,2-diamine], the IC50 with KARPAS-422 cells came to 0.0035 µM; in assay [1] it was 0.0112 µM.

As for `Fc1ccc2c(c1CNc1ncc(-c3cccc4cn[nH]c34)c3nncn13)CCO2` [N-((5-fluoro-2,3-dihydrobenzofuran-4-yl)methyl)-8-(1H-indazol-7-yl)-[1,2,4]triazolo[4,3-c]pyrimidin-5-amine], the IC50 in the assay with KARPAS-422 cells came to 0.0023 µM; in assay [1], 0.0016 µM.

Take `CC1CN(c2ccc(-c3cnc(NCc4c(F)ccc5c4CCO5)n4cnnc34)c3ncnn23)CCO1` (stereo not shown) [N-((5-fluoro-2,3-dihydrobenzofuran-4-yl)methyl)-8-(5-(2-methylmorpholino)-[1,2,4]triazolo[1,5-a]pyridin-8-yl)-[1,2,4]triazolo[4,3-c]pyrimidin-5-amine]: the IC50 was found to be 0.0005 µM with KARPAS-422 cells and 0.0008 µM in assay [1].

As for `CN1CCN(c2ccc(-c3cnc(NCc4c(F)ccc5c4CCO5)n4cnnc34)c3ncnn23)CC1` [N-((5-fluoro-2,3-dihydrobenzofuran-4-yl)methyl)-8-(5-(4-methylpiperazin-1-yl)-[1,2,4]triazolo[1,5-a]pyridin-8-yl)-[1,2,4]triazolo[4,3-c]pyrimidin-5-amine], the IC50 is 0.0007 µM with KARPAS-422 cells and 0.0041 µM in assay [1].

As for `Fc1ccc2c(c1CNc1ncc(-c3ccc(N4CCC(N5CCOCC5)CC4)n4ncnc34)c3nncn13)CCO2` [N-((5-fluoro-2,3-dihydrobenzofuran-4-yl)methyl)-8-(5-(4-morpholinopiperidin-1-yl)-[1,2,4]triazolo[1,5-a]pyridin-8-yl)-[1,2,4]triazolo[4,3-c]pyrimidin-5-amine], the IC50 in the assay on KARPAS-422 cells was determined as 0.0008 µM; in assay [1], 0.0011 µM.

For `CN1CCN(Cc2ccc(-c3cnc(NCc4c(F)ccc5c4CCO5)n4cnnc34)c3ncnn23)CC1` [N-((5-fluoro-2,3-dihydrobenzofuran-4-yl)methyl)-8-(5-((4-methylpiperazin-1-yl)methyl)-[1,2,4]triazolo[1,5-a]pyridin-8-yl)-[1,2,4]triazolo[4,3-c]pyrimidin-5-amine], the results for the IC50 (in the assay with KARPAS-422 cells; in assay [1]) were 0.0007 µM and 0.0011 µM, respectively.

Regarding `Fc1ccc2c(c1CNc1ncc(-c3ccc(CN4CCOCC4)n4ncnc34)c3nncn13)CCO2` [N-((5-fluoro-2,3-dihydrobenzofuran-4-yl)methyl)-8-(5-(morpholinomethyl)-[1,2,4]triazolo[1,5-a]pyridin-8-yl)-[1,2,4]triazolo[4,3-c]pyrimidin-5-amine], the half-maximal inhibitory concentration (IC50) (in the assay with KARPAS-422 cells; in assay [1]) was 0.0011 µM in each case.

Consider `Fc1ccc2c(c1CNc1ncc(-c3ccc(N4CCCC4)n4ncnc34)c3nncn13)CCO2` [N-((5-fluoro-2,3-dihydrobenzofuran-4-yl)methyl)-8-(5-(pyrrolidin-1-yl)-[1,2,4]triazolo[1,5-a]pyridin-8-yl)-[1,2,4]triazolo[4,3-c]pyrimidin-5-amine], for which the figures for the half-maximal inhibitory concentration (IC50) (in the assay on KARPAS-422 cells; in assay [1]) were 0.0032 µM and 0.0027 µM, respectively.

For the molecule `Fc1ccc2c(c1CNc1ncc(-c3ccc(C(F)(F)F)n4ncnc34)c3nncn13)CCO2` [N-((5-fluoro-2,3-dihydrobenzofuran-4-yl)methyl)-8-(5-(trifluoromethyl)-[1,2,4]triazolo[1,5-a]pyridin-8-yl)-[1,2,4]triazolo[4,3-c]pyrimidin-5-amine], the values for the IC50 (in the assay on KARPAS-422 cells; in assay [1]) were 0.036 µM and 0.0069 µM, respectively.

For the molecule `Fc1ccc2c(c1CNc1ncc(-c3ccc(C(F)(F)F)n4ccnc34)c3nncn13)CCO2` [N-((5-fluoro-2,3-dihydrobenzofuran-4-yl)methyl)-8-(5-(trifluoromethyl)imidazo[1,2-a]pyridin-8-yl)-[1,2,4]triazolo[4,3-c]pyrimidin-5-amine], the IC50 worked out at 0.007 µM in the assay with KARPAS-422 cells and 0.0106 µM in assay [1].
